Columns and labels:
Assay in all cases: Further analysis of a plurality of inhibitors and a plurality of kinases on microarray (Example IX, Table 5);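 further: inhibition of each kinase by the inhibitors is given as a qualitative level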;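 on Inhibition level, DYRK1A: level 0 none or unclear Level 1 marginal Level 2 substantial inhibition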;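 on Inhibition level, Homo sapiens in: level 0 none or unclear Level 1 marginal Level 2 substantial inhibition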;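 on Inhibition level, Homo sapiens, o: level 0 none or unclear Level 1 marginal Level 2 substantial inhibition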;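 on Inhibition level, MAP4K3: level 0 none or unclear then 1 little or marginal then 2 substantial inhibition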;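 on Inhibition level, PIM1: level 0 no or unclear inhibition to Level 2 substantial inhibition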
Assay type in all cases: biochemical
[1] = target: plurality of kinases (Table 5) (Homo sapiens, UniProt P07949); settings: plate B7
[2] = target: plurality of kinases (Table 5) (Homo sapiens, UniProt P09769); settings: plate B10
[3] = target: plurality of kinases (Table 5) (Homo sapiens, UniProt P11309); settings: plate C2
[4] = target: plurality of kinases (Table 5) (Homo sapiens, UniProt Q13627); settings: plate G6
[5] = target: T1, plurality of kinases (Table 5) (Homo sapiens, UniProt Q8IV63); settings: plate C12
T1 sequence (Q8IV63 1-474): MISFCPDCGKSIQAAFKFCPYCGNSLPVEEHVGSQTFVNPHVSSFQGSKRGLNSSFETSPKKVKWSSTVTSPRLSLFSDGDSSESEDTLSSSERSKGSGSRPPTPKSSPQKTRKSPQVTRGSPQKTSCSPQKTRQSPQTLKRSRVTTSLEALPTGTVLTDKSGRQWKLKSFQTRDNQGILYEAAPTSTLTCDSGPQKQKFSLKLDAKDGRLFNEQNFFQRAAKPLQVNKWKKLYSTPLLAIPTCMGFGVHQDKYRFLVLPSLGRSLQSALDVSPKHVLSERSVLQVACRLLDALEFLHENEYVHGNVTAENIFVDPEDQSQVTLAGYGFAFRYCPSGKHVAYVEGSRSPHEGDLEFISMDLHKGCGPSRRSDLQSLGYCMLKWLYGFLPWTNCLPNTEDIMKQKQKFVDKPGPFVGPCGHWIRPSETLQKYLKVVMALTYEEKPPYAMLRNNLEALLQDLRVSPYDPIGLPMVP

[6] = target: T2, plurality of kinases (Table 5) (Homo sapiens, UniProt Q8IVH8); settings: plate C5; inhibitor 100 uM
T2 sequence (Q8IVH8 1-894): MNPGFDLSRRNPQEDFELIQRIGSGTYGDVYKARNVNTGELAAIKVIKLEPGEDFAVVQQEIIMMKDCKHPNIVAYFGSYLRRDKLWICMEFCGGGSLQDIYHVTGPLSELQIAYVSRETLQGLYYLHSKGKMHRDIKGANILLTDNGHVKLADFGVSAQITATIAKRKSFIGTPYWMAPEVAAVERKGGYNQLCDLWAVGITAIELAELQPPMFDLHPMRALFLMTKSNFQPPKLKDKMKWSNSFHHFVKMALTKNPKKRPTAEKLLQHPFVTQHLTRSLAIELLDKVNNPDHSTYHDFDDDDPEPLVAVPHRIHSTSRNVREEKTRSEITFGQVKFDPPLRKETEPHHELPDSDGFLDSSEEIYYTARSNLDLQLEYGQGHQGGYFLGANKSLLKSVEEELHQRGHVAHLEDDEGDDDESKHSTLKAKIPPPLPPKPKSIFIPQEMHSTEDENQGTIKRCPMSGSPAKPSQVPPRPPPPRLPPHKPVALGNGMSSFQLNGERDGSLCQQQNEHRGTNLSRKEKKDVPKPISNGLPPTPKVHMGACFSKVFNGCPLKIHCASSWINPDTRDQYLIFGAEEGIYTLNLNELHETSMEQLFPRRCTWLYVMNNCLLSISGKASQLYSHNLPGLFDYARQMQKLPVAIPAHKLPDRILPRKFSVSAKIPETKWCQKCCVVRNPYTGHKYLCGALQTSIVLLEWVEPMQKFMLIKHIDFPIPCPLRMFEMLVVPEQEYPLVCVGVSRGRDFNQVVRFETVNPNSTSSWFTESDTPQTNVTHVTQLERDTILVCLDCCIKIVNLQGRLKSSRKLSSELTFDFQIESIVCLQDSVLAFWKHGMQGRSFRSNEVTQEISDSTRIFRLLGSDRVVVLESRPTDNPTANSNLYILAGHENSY

[7] = target: T3, plurality of kinases (Table 5) (Homo sapiens, UniProt Q9Y616); settings: plate C9; inhibitor 100 uM
T3 sequence (Q9Y616 1-596): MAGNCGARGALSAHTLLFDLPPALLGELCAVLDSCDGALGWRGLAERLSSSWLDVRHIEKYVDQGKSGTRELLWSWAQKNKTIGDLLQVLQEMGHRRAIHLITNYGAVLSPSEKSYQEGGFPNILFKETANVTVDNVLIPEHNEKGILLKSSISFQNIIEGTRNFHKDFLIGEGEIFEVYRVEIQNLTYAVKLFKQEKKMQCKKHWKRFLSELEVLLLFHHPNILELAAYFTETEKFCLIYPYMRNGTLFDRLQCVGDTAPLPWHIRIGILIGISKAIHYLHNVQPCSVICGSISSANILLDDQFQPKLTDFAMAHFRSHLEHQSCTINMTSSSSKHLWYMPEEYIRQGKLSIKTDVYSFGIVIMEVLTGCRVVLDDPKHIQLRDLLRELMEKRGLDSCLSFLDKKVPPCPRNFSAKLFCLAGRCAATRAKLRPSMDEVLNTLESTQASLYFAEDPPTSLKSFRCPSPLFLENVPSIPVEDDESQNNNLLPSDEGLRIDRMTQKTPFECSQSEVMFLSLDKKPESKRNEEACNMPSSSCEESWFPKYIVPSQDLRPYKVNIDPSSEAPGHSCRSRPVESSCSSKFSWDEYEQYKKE

[8] = tested on: plurality of kinases (Table 5); settings: for Inhibition level, Homo sapiens c: plate F4; for Inhibition level, Homo sapiens, o: plate F5; for Inhibition level, Homo sapiens, B: plate F7; for Inhibition level, Homo sapiens in: plate F9; for Inhibition level, Homo sapiens p: plate F10

Chain of plurality of kinases (Table 5) (Homo sapiens, UniProt P11309) (P11309 whole entry): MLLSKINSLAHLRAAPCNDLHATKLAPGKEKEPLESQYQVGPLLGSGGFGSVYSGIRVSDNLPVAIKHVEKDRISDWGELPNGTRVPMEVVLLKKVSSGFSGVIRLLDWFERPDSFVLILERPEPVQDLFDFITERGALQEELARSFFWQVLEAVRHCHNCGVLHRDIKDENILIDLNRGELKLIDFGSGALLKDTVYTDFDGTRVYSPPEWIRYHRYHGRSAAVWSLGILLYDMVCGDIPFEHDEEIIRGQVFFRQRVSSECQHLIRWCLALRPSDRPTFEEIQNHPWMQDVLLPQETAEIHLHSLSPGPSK
Chain of plurality of kinases (Table 5) (Homo sapiens, UniProt P07949) (P07949 29-1114): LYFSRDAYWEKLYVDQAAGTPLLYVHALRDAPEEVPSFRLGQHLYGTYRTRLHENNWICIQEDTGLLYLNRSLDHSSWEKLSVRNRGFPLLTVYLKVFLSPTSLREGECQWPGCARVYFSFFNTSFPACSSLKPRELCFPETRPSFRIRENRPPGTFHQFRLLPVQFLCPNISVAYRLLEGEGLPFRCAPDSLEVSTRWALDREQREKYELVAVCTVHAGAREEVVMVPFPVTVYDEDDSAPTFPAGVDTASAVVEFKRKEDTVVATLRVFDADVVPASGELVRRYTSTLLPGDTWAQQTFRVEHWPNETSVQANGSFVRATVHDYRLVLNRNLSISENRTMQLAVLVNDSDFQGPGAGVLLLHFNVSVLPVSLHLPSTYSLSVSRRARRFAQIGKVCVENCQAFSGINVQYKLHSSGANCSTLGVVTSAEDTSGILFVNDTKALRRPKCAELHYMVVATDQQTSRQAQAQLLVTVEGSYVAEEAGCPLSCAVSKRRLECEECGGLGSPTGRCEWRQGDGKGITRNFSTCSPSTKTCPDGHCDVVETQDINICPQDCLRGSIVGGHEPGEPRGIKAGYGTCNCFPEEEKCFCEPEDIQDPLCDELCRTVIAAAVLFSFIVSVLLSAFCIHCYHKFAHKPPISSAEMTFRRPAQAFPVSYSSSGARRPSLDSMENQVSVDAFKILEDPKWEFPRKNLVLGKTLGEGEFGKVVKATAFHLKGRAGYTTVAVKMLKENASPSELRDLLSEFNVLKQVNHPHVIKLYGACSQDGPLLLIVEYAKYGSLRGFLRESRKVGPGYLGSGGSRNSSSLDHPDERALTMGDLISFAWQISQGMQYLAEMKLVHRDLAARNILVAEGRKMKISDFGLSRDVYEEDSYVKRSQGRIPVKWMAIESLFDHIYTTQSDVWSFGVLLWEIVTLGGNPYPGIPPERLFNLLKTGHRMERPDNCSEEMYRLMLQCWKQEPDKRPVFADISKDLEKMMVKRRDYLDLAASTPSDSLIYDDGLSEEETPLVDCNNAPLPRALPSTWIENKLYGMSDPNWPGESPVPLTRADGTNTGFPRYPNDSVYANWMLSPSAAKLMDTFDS
Chain of plurality of kinases (Table 5) (Homo sapiens, UniProt P09769) (P09769 whole entry): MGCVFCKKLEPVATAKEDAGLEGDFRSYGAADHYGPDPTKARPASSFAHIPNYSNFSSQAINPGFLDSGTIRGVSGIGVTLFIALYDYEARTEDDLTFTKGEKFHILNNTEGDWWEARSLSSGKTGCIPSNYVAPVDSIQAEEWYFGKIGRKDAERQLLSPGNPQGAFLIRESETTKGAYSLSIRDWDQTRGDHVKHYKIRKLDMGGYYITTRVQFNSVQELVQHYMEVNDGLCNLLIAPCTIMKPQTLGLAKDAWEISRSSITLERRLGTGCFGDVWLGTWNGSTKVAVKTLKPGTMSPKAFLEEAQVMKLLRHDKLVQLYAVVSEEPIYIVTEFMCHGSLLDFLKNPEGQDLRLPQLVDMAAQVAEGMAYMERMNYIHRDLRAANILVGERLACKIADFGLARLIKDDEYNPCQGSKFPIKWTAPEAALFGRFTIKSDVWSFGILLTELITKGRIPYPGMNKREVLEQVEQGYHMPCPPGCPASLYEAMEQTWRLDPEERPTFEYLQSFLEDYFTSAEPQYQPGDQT

Inhibition level, RET ([1]; inhibitor 100 uM) | Inhibition level, FGR ([2]; inhibitor 100 uM) | Inhibition level, PIM1 ([3]; inhibitor 100 uM) | Inhibition level, DYRK1A ([4]; inhibitor 100 uM) | Inhibition level, LOC51231 ([5]; inhibitor 100 uM) | Inhibition level, MAP4K3 [6] | Inhibition level, IRAK3 [7] | SMILES | Inhibition level, Homo sapiens, S ([8]; plate E9, inhibitor 100 uM) | Inhibition level, Homo sapiens, s ([8]; plate E11, inhibitor 100 uM) | Inhibition level, Homo sapiens, s ([8]; plate F3, inhibitor 100 uM) | Inhibition level, Homo sapiens c ([8]; inhibitor 100 uM) | Inhibition level, Homo sapiens, o ([8]; inhibitor 100 uM) | Inhibition level, Homo sapiens, S ([8]; plate F6, inhibitor 100 uM) | Inhibition level, Homo sapiens, B ([8]; inhibitor 100 uM) | Inhibition level, Homo sapiens, s ([8]; plate F8, inhibitor 100 uM) | Inhibition level, Homo sapiens in ([8]; inhibitor 100 uM) | Inhibition level, Homo sapiens p ([8]; inhibitor 100 uM) | also measured
2 | 2 | 2 | 1 | 0 | 2 | 2 | CC(C)(C)n1nc(-c2ccc(Cl)cc2)c2c(N)ncnc21 [PP2] | 2 | 2 | 2 | 2 | 2 | 2 | 2 | 0 | 2 | 2 | 
0 | 2 | 0 | 2 | 2 | 2 | 2 | Cn1cc(C2=C(c3cn(CCCSC(=N)N)c4ccccc34)C(=O)NC2=O)c2ccccc21 [Ro-31-8220] | 0 | 2 | 2 | 2 | 2 | 2 | 0 | 0 | 0 | 2 | Inhibition level, RET ([1]; Ro-31-8220, conc. not given): 2; Inhibition level, FGR ([2]; Ro-31-8220, conc. not given): 2; Inhibition level, PIM1 ([3]; Ro-31-8220 90 uM): 2; Inhibition level, DYRK1A ([4]; Ro-31-8220 90 uM): 0; Inhibition level, LOC51231 ([5]; Ro-31-8220 90 uM): 0; Inhibition level, Homo sapiens, s ([8]; plate F3, Ro-31-8220, conc. not given): 2; Inhibition level, Homo sapiens, o ([8]; Ro-31-8220, conc. not given): 0; Inhibition level, Homo sapiens, S ([8]; plate F6, Ro-31-8220, conc. not given): 0; Inhibition level, Homo sapiens, B ([8]; Ro-31-8220, conc. not given): 2; Inhibition level, Homo sapiens, s ([8]; plate F8, Ro-31-8220, conc. not given): 2; Inhibition level, Homo sapiens in ([8]; Ro-31-8220, conc. not given): 2; Inhibition level, Homo sapiens p ([8]; Ro-31-8220, conc. not given): 2

SMILES | Inhibition level, RET ([1]; inhibitor 100 uM) | Inhibition level, FGR ([2]; inhibitor 100 uM) | Inhibition level, PIM1 ([3]; inhibitor 100 uM) | Inhibition level, DYRK1A ([4]; inhibitor 100 uM) | Inhibition level, LOC51231 ([5]; inhibitor 100 uM) | Inhibition level, MAP4K3 [6] | Inhibition level, IRAK3 [7] | Inhibition level, Homo sapiens, S ([8]; plate E9, inhibitor 100 uM) | Inhibition level, Homo sapiens, s ([8]; plate E11, inhibitor 100 uM) | Inhibition level, Homo sapiens, s ([8]; plate F3, inhibitor 100 uM) | Inhibition level, Homo sapiens c ([8]; inhibitor 100 uM) | Inhibition level, Homo sapiens, o ([8]; inhibitor 100 uM) | Inhibition level, Homo sapiens, S ([8]; plate F6, inhibitor 100 uM) | Inhibition level, Homo sapiens, B ([8]; inhibitor 100 uM) | Inhibition level, Homo sapiens, s ([8]; plate F8, inhibitor 100 uM) | Inhibition level, Homo sapiens in ([8]; inhibitor 100 uM) | Inhibition level, Homo sapiens p ([8]; inhibitor 100 uM) | also measured
CC(=O)c1c(O)c(C)c(O)c(Cc2c(O)c3c(c(C(=O)/C=C/c4ccccc4)c2O)OC(C)(C)C=C3)c1O [Rottlerin (Mallotoxin)] | 0 | 2 | 2 | 0 | 0 | 1 | 2 | 2 | 2 | 0 | 0 | 0 | 0 | 2 | 0 | 0 | 2 | 

Source: patent US7635572B2, “Methods for conducting assays for enzyme activity on protein microarrays” (Life Technologies Corporation, priority 2004, dated 2009)
